Columns and labels:
[1] = target: T1, Growth factor receptor-bound protein 2 (Homo sapiens, UniProt P62993); test: Inhibition of Grb2 SH2 domain binding to phospho-EGF receptor intracellular C-terminal domain at 5 mM
[2] = target: T1, Growth factor receptor-bound protein 2; test: Inhibition of Grb2 SH2 domain binding to phospho-EGF receptor intracellular C-terminal domain

IC50 [2] | Compound | inhibition [1]
– | O=P(O)(O)Oc1ccccc1 | 55%
> 200 µM | Nc1ccnc(NCCc2ccc(OP(=O)(O)O)cc2)n1 | –
25.9 µM | Cc1sc(-c2nccc(N)n2)nc1-c1ccc(OP(=O)(O)O)cc1 | –
